How the values were obtained:
hLH receptor = hLH receptor (Homo sapiens, UniProt P22888); assay: inhibition of LH EC80 response at hLH receptor; format: cell-based
[1] = target: T1, human FSH receptor (hFSHR) (Homo sapiens, UniProt P23945); assay: HTRF cAMP inhibition; format: cell-based
T1 sequence (P23945 18-695): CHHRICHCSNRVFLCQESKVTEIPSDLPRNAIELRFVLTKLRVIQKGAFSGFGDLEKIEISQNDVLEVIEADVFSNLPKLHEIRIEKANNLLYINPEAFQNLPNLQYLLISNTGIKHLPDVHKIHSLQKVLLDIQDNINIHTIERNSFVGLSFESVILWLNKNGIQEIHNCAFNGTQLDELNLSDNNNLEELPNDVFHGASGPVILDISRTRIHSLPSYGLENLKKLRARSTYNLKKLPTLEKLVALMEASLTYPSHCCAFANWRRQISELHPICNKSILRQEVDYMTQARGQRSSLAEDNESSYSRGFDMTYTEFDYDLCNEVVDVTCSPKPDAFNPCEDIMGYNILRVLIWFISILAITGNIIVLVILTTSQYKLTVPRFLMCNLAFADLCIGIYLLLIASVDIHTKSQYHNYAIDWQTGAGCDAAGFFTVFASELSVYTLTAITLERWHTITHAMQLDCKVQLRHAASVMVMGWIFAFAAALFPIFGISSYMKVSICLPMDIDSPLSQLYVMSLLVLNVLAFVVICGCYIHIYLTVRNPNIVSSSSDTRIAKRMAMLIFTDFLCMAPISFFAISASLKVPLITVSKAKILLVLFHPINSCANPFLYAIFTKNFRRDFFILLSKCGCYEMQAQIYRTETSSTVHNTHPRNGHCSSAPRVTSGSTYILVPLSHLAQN

Sequence of hLH receptor (P22888 27-699): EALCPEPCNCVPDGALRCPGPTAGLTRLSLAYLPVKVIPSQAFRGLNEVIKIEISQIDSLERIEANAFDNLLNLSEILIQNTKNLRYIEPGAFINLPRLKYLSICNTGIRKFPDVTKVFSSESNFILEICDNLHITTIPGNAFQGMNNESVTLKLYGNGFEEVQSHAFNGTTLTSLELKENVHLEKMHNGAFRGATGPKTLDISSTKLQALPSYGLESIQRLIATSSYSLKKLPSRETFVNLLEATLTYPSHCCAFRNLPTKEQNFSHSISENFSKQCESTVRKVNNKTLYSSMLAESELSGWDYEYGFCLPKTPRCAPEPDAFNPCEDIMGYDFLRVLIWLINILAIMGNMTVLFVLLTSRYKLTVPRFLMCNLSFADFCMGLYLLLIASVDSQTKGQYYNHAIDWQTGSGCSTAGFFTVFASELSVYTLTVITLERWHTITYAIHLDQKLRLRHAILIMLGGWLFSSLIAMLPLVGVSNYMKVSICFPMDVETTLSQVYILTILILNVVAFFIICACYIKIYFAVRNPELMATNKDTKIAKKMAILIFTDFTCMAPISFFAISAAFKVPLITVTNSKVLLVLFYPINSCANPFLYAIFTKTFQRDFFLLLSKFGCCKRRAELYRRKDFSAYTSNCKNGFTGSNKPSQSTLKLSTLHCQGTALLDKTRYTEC

Question: With `COc1ccc(C(=O)Nc2ccc(C(C)(C)C#N)cc2)cc1OC` [ADX61623] as the molecule, how does the IC50 (hLH receptor) read?
Answer: The IC50 was 3.4 ± 0.8 µM.

Question: What about the IC50 [1] of the same molecule?
Answer: The IC50 was 700 ± 200 nM.

Reference: paper PMC4491433 (Molecular and cellular endocrinology, 2010)
